Measured values from US12378224B2 (Dong-A Socio Holdings Co., Ltd., priority 2016, dated 2025).
Where two headings read alike, the source gives them in different places.

Key:
[1] = target: human MER (528-end) (Homo sapiens (Human), UniProt Q12866); assay: HTRF Kinase Activity Biochemical Assay (KinEASE-TK); details: 10 uM ATP
How it was run: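 Recombinant human MER (528-end) phosphorylated biotin-TK peptide substrate, 1 h at room temperature. Reaction stopped with detection buffer containing 0.375 nM Eu3+-cryptate anti-TK antibody and 0.062 uM streptavidin-XL665, 1 h further. Activity taken as HTRF ratio 665/620 nm ×10,000, 340 nm excitation.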

[2] = target: BCR fusion to kinase domain of MerTK (Ba/F3-MerTK) (Homo sapiens, UniProt Q12866); assay: In Cell TAM Kinase Assay Using BaF3 Cellular System; format: cell-based, murine; details: Ba/F3 BCR-kinase fusion proliferation, 72 hours, Cell Titer Glo, kinase not given
BCR fusion to kinase domain of MerTK (Ba/F3-MerTK), sequence (Q12866 21-999 limits assumed, stated change not applied): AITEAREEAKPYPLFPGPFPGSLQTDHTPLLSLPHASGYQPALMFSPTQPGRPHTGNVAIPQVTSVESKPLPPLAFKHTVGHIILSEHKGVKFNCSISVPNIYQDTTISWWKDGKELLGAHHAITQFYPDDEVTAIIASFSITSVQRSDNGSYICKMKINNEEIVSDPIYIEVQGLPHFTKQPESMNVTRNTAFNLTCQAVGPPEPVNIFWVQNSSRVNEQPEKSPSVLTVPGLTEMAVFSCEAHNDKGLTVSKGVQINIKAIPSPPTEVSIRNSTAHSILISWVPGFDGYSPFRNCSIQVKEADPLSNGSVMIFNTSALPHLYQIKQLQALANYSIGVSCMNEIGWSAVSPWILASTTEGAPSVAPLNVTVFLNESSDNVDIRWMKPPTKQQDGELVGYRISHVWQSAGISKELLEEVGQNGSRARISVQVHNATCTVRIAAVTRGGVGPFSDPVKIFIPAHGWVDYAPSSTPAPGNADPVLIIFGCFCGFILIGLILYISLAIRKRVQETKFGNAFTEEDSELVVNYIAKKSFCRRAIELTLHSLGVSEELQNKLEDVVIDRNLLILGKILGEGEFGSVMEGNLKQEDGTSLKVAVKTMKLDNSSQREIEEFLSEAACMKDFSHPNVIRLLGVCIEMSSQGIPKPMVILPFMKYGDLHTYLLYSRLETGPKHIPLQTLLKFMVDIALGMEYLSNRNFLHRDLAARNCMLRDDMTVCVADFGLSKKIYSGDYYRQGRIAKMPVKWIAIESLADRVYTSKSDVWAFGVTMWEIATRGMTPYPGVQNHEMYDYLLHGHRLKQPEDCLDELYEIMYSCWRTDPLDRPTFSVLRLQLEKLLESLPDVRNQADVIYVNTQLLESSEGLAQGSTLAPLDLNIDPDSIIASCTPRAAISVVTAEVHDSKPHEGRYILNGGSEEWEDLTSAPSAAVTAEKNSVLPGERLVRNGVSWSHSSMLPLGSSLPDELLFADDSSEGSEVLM
Text: Three Ba/F3 cell lines (a murine IL-3 dependent pro-B cell line) expressing BCR fusions to the kinase domains of either MerTK (Ba/F3-MerTK), Axl (Ba/F3-Axl), or Tyro3 (Ba/F3-Tyro3) were purchased from Advanced Cellular Dynamics. The IL-3 independence of all 3 cell lines was confirmed. After thawing, the 3 Ba/F3 cell lines were split and maintained in cell culture media, which consisted of RPMI-1640-HEPES (Thermo-Cat #22400-089) with 1× Glutamax (Thermo-Cat #35050-061) and 10% FBS (Sigma-Cat #F4135 (500 ml), at a cell density range of 0.05×10^6−1×10^6 cells/mL 4 days before used in the routine screen. Compound plates were prepared using Nunc™ white 384-well optical bottom plates (ThermoFisher, USA) with compound in 25 nL dimethyl sulfoxide in each well. For routine assays, each of the 3 Ba/F3 cell lines was seeded at 1,000 cells per well with 25 µL of cell culture media directly into 384-well compound plates and incubated for 72 hours. Cell proliferation was then measured by adding 25 μL of Cell Titer Glo 2.0 (Promega, USA). After incubating with Cell Titer Glo at room temperature for 30 mins, the luminescence intensity, which quantifies the cell viability, was measured using an Envision™ plate reader (PerkinElmer, USA). […] In the presence of IL-3, the proliferation of the Ba/F3-Tyro3 cells is no longer dependent on the Tyro3 kinase activity.

human MER (528-end), sequence (Q12866 528-999 limits assumed): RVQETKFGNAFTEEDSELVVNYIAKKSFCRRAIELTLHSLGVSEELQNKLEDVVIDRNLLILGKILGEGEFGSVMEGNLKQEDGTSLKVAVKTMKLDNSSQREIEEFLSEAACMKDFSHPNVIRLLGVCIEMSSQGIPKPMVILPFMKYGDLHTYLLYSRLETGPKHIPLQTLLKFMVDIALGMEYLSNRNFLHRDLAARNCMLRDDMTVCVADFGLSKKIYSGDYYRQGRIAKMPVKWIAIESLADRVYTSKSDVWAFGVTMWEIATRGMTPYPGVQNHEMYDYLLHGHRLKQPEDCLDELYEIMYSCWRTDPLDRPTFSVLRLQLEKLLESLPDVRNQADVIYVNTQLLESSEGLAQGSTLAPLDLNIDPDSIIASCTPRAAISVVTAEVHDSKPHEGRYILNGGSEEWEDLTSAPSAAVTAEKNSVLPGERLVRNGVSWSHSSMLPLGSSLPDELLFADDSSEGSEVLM

Cn1cc(-c2cnc(N)c(C(=O)N[C@@H]3CCN(C(=O)c4cc5ccccc5[nH]4)C3)c2)cn1 [Example 697, (R)—N-(1-(1H-indole-2-carbonyl)pyrrolidin-3-yl)-2-amino-5-(1-methyl-1H-pyrazol-4-yl)nicotinamide]
IC50 [1]: > 1 µM
IC50 ([2]; read-out: IC50): > 1 µM

Cn1cc(-c2cnc(N)c(C(=O)N[C@@H]3CCN(C(=O)c4ccc(Oc5ccccc5Cl)cc4)C3)c2)cn1 [Example 718, (R)-2-amino-N-(1-(4-(2-chlorophenoxy)benzoyl)pyrrolidin-3-yl)-5-(1-methyl-1H-pyrazol-4-yl)nicotinamide]
IC50 [1]: 0.01 to 0.1 µM
IC50 ([2]; read-out: IC50): 0.5 to 1 µM

CN(C)CCCOc1ccc2cc(C(=O)N3CC[C@@H](NC(=O)c4cc(-c5cnn(C)c5)cnc4N)C3)ccc2c1 [Example 766, (R)-2-amino-N-(1-(6-(3-(dimethylamino)propoxy)-2-naphthoyl)pyrrolidin-3-yl)-5-(1-methyl-1H-pyrazol-4-yl)nicotinamide]
IC50 [1]: 0.1 to 1 µM
IC50 ([2]; read-out: IC50): > 1 µM

Cn1cc(-c2cnc(N)c(C(=O)N[C@@H]3CCN(C(=O)c4ccc(-c5ccc(C=O)cc5)cc4)C3)c2)cn1 [Example 381, (R)-2-amino-N-(1-(4′-formyl-[1,1′-biphenyl]-4-carbonyl)pyrrolidin-3-yl)-5-(1-methyl-1H-pyrazol-4-yl)nicotinamide]
IC50 [1]: 0.1 to 1 µM
IC50 ([2]; read-out: IC50): > 1 µM

CCn1c(C(=O)N2CC[C@@H](NC(=O)c3cc(-c4cnn(C)c4)cnc3N)C2)cc2ccccc21 [Example 701, (R)-2-amino-N-(1-(1-ethyl-1H-indole-2-carbonyl)pyrrolidin-3-yl)-5-(1-methyl-1H-pyrazol-4-yl)nicotinamide]
IC50 [1]: > 1 µM
IC50 ([2]; read-out: IC50): > 1 µM

(R)-2-amino-N-(1-(4′-(4-hydroxyphenoxy)-[1,1′-biphenyl]-4-carbonyl)pyrrolidin-3-yl)-5-(1-methyl-1H-pyrazol-4-yl)nicotinamide [Example 800]
IC50 [1]: 0.01 to 0.1 µM
IC50 ([2]; read-out: IC50): > 1 µM

CN(C)CCOc1ccc2cc(C(=O)N3CC[C@@H](NC(=O)c4cc(-c5cnn(C)c5)cnc4N)C3)ccc2c1 [Example 762]
IC50 [1]: 0.1 to 1 µM
IC50 ([2]; read-out: IC50): > 1 µM

CN(c1ccc(-c2ccc(C(=O)N3CC[C@@H](NC(=O)c4cc(-c5cnn(C)c5)cnc4N)C3)cc2)cc1)c1ccc([N+](=O)[O-])cc1F [Example 804, (R)-2-amino-N-(1-(4′-((2-fluoro-4-nitrophenyl)(methyl)amino)-[1,1′-biphenyl]-4-carbonyl)pyrrolidin-3-yl)-5-(1-methyl-1H-pyrazol-4-yl)nicotinamide]
IC50 [1]: 0.1 to 1 µM
IC50 ([2]; read-out: IC50): > 1 µM

NC(=O)c1ccccc1-c1cnc(N)c(C(=O)N[C@@H]2CCN(C(=O)c3ccc(-c4ccc(F)cc4Cl)cc3)C2)c1 [Example 776, (R)-2-amino-5-(2-carbamoylphenyl)-N-(1-(2′-chloro-4′-fluoro-[1,1′-biphenyl]-4-carbonyl)pyrrolidin-3-yl)nicotinamide]
IC50 [1]: > 1 µM
IC50 ([2]; read-out: IC50): > 1 µM

Cn1cc(-c2cnc(N)c(C(=O)N[C@@H]3CCN(C(=O)c4cc5ccccc5n4Cc4ccccc4)C3)c2)cn1 [Example 702, (R)-2-amino-N-(1-(1-benzyl-1H-indole-2-carbonyl)pyrrolidin-3-yl)-5-(1-methyl-1H-pyrazol-4-yl)nicotinamide]
IC50 [1]: > 1 µM
IC50 ([2]; read-out: IC50): > 1 µM

Cn1cc(-c2cnc(N)c(C(=O)N[C@@H]3CCN(C(=O)c4ccc(-c5ccc(Oc6ccc(O)cc6)c(Cl)c5)cc4)C3)c2)cn1 [Example 808, (R)-2-amino-N-(1-(3′-chloro-4′-(4-hydroxyphenoxy)-[1,1′-biphenyl]-4-carbonyl)pyrrolidin-3-yl)-5-(1-methyl-1H-pyrazol-4-yl)nicotinamide]
IC50 [1]: 0.01 to 0.1 µM
IC50 ([2]; read-out: IC50): 0.1 to 0.5 µM

CCc1cccc(-c2ccc(C(=O)N3CC[C@@H](NC(=O)c4cc(-c5cnn(C)c5)cnc4N)C3)cc2)c1 [Example 657, (R)-2-amino-N-(1-(3′-ethyl-[1,1′-biphenyl]-4-carbonyl)pyrrolidin-3-yl)-5-(1-methyl-1H-pyrazol-4-yl)nicotinamide]
IC50 [1]: 0.01 to 0.1 µM
IC50 ([2]; read-out: IC50): 0.1 to 0.5 µM

Cn1cc(-c2cnc(N)c(C(=O)N[C@@H]3CCN(C(=O)c4ccc5cccnc5n4)C3)c2)cn1 [Example 699, (R)—N-(1-(1,8-naphthyridine-2-carbonyl)pyrrolidin-3-yl)-2-amino-5-(1-methyl-1H-pyrazol-4-yl)nicotinamide]
IC50 [1]: > 1 µM
IC50 ([2]; read-out: IC50): > 1 µM

CN(c1ccc(-c2ccc(C(=O)N3CC[C@@H](NC(=O)c4cc(-c5cnn(C)c5)cnc4N)C3)cc2)cc1)c1ccc(N)cc1Cl [Example 837, (R)-2-amino-N-(1-(4′-((4-amino-2-chlorophenyl)(methyl)amino)-[1,1′-biphenyl]-4-carbonyl)pyrrolidin-3-yl)-5-(1-methyl-1H-pyrazol-4-yl)nicotinamide]
IC50 [1]: 0.1 to 1 µM
IC50 ([2]; read-out: IC50): > 1 µM

Nc1ncc(-c2ccc(C(=O)NC3CCOCC3)cc2)cc1C(=O)N[C@@H]1CCN(C(=O)c2ccc(-c3ccccc3Cl)cc2)C1 [Example 593, (R)-2-amino-N-(1-(2′-chloro-[1,1′-biphenyl]-4-carbonyl)pyrrolidin-3-yl)-5-(4-((tetrahydro-2H-pyran-4-yl)carbamoyl)phenyl)nicotinamide]
IC50 [1]: 0.01 to 0.1 µM
IC50 ([2]; read-out: IC50): > 1 µM

Cc1csc(-c2ccc(C(=O)N3CC[C@@H](NC(=O)c4cc(-c5cnn(C)c5)cnc4N)C3)cc2)c1 [Example 525, (R)-2-amino-5-(1-methyl-1H-pyrazol-4-yl)-N-(1-(4-(4-methylthiophen-2-yl)benzoyl)pyrrolidin-3-yl)nicotinamide]
IC50 [1]: 0.01 to 0.1 µM
IC50 ([2]; read-out: IC50): 0.1 to 0.5 µM

CCN(c1ccc2cc(C(=O)N3CC[C@@H](NC(=O)c4cc(-c5cnn(C)c5)cnc4N)C3)ccc2c1)C1CC(C)(C)N(C)C(C)(C)C1 [Example 721, (R)-2-amino-N-(1-(6-(ethyl(1,2,2,6,6-pentamethylpiperidin-4-yl)amino)-2-naphthoyl)pyrrolidin-3-yl)-5-(1-methyl-1H-pyrazol-4-yl)nicotinamide]
IC50 [1]: 0.01 to 0.1 µM
IC50 ([2]; read-out: IC50): 0.1 to 0.5 µM

Cn1cc(-c2cnc(N)c(C(=O)NC[C@@H]3CCCN3C(=O)c3cccc(-c4ccccc4)c3)c2)cn1 [Example 735, (S)—N-((1-([1,1′-biphenyl]-3-carbonyl)pyrrolidin-2-yl)methyl)-2-amino-5-(1-methyl-1H-pyrazol-4-yl)nicotinamide]
IC50 [1]: > 1 µM
IC50 ([2]; read-out: IC50): > 1 µM

Cn1cc(-c2cnc(N)c(C(=O)N[C@@H]3CCN(C(=O)c4ccc(-c5ccc(C(=O)N6CCC(=O)CC6)cc5)cc4)C3)c2)cn1 [Example 679, (R)-2-amino-5-(1-methyl-1H-pyrazol-4-yl)-N-(1-(4′-(4-oxopiperidine-1-carbonyl)-[1,1′-biphenyl]-4-carbonyl)pyrrolidin-3-yl)nicotinamide]
IC50 [1]: > 1 µM
IC50 [2]: > 1 µM

Nc1ncc(-c2ccc(C(=O)N3CCOCC3)c(Cl)c2)cc1C(=O)N[C@@H]1CCN(C(=O)c2ccc(-c3ccc(F)cc3Cl)cc2)C1 [Example 781, (R)-2-amino-N-(1-(2′-chloro-4′-fluoro-[1,1′-biphenyl]-4-carbonyl)pyrrolidin-3-yl)-5-(3-chloro-4-(morpholine-4-carbonyl)phenyl)nicotinamide]
IC50 [1]: 0.01 to 0.1 µM
IC50 ([2]; read-out: IC50): > 1 µM

Cn1cc(-c2cnc(N)c(C(=O)N[C@@H]3CCN(C(=O)c4ccc(-c5ccc(Oc6ccncc6)cc5)cc4)C3)c2)cn1 [Example 798, (R)-2-amino-5-(1-methyl-1H-pyrazol-4-yl)-N-(1-(4′-(pyridin-4-yloxy)-[1,1′-biphenyl]-4-carbonyl)pyrrolidin-3-yl)nicotinamide]
IC50 [1]: 0.01 to 0.1 µM
IC50 ([2]; read-out: IC50): > 1 µM

Cn1cc(-c2cnc(N)c(C(=O)N[C@@H]3CCN(C(=O)c4ccc(-c5cccc(F)c5Cl)cc4)C3)c2)cn1 [Example 673, (R)-2-amino-N-(1-(2′-chloro-3′-fluoro-[1,1′-biphenyl]-4-carbonyl)pyrrolidin-3-yl)-5-(1-methyl-1H-pyrazol-4-yl)nicotinamide]
IC50 [1]: 0.01 to 0.1 µM
IC50 ([2]; read-out: IC50): 0.5 to 1 µM

CN(c1ccc2cc(C(=O)N3CC[C@@H](NC(=O)c4cc(-c5cnn(C)c5)cnc4N)C3)ccc2c1)C1CCNCC1 [Example 818, (R)-2-amino-N-(1-(6-(methyl(piperidin-4-yl)amino)-2-naphthoyl)pyrrolidin-3-yl)-5-(1-methyl-1H-pyrazol-4-yl)nicotinamide]
IC50 [1]: 0.01 to 0.1 µM
IC50 ([2]; read-out: IC50): > 1 µM

CN(C)Cc1ccc(Oc2ccc(-c3ccc(C(=O)N4CC[C@@H](NC(=O)c5cc(-c6cnn(C)c6)cnc5N)C4)cc3)cc2)cc1 [Example 636, (R)-2-amino-N-(1-(4′-(4-((dimethylamino)methyl)phenoxy)-[1,1′-biphenyl]-4-carbonyl)pyrrolidin-3-yl)-5-(1-methyl-1H-pyrazol-4-yl)nicotinamide]
IC50 [1]: 0.01 to 0.1 µM
IC50 ([2]; read-out: IC50): 0.1 to 0.5 µM
